These results are taken from US4762846A (priority 1986, dated 1988).

Broadly, the Kd is the constant that tells how readily two partners part at equilibrium. By IC50 is commonly meant the concentration at which inhibition is half-maximal.

In series [1] the test system is Phencyclidine Receptor. It counts as binding, rat. The settings on record: for IC50: read-out: Apparent IC50.
For series [2], the target named is PCP receptors. As to the kind of experiment: Scatchard analysis of [3H]TCP binding after treatment with affinity ligand. Details: species or system rat.
Series [3] in a line: Water solubility of Metaphit salts. The settings on record: relative to the hydrochloride.
Series [4] addresses phencyclidine receptors ([3H]PCP binding site). Details: species or system rat.
Series [5] concerns cerebellar Purkinje neurons. The following applies: local administration, denervation or antipsychotics; cited from earlier work.
For series [6] the following is noted: cited from earlier work.
Series [7] deals with muscarinic receptors. The series is classed as binding, rat.
Series [8] has as its system benzodiazepine receptors ([3H]diazepam site). The series is classed as binding, rat.
The test system of series [9] is Phencyclidine Receptor. It counts as binding, rat.
The target of series [10] is T1, opioid receptors (Rattus norvegicus, UniProt P33535).
T1 construct: from tissue; host or cells: brain tissue (rat, inferred from the sister test)
The following applies: cited from earlier work.

The target in series [11] is PCP receptors. As to the kind of experiment: [3H]PCP binding (Scatchard) in brain homogenates of rats pretreated i.c.v. with Metaphit or saline. Details: species or system rat (male Sprague-Dawley). The settings on record: saline-pretreated rats; mean ±S.E.

Several values for one entry are separate records, joined by “and”; a condition that tells them apart may be missing. Equal entries are not always repeated. Entries after “also recorded” stand apart in the source; their conditions may differ. Structures can show the parent of a compound that is named as a salt. Where two headings read alike, the source gives them in different places.

T1 sequence (P33535 whole entry): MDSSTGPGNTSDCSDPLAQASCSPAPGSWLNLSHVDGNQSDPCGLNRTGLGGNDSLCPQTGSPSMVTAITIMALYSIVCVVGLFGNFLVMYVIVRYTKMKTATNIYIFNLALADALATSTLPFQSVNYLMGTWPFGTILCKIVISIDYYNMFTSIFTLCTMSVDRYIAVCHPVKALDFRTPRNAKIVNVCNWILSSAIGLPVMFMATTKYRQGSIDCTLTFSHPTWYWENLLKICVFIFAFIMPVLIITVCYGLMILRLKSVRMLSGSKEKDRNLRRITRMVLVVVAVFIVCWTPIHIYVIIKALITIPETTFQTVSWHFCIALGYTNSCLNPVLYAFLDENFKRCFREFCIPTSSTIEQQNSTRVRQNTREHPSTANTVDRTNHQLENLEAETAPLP

On to `c1csc(C2(N3CCCCC3)CCCCC2)c1` [[3H]-TCP], for which, in series [1], the “Non-specific binding of radioligand” value is 10%. For the same molecule, in [2] (control tissue, [3H]-TCP 1.0 to 150 nM, read-out: Kd for control ([3H]-TCP)), the dissociation constant (Kd) was found to be 15 nM.

In the case of `S=C=Nc1cccc(C2(N3CCCCC3)CCCCC2)c1` [methanesulfonate salt], the solubility in water result in series [3] is listed as “considerably more soluble in water than the hydrochloride”.

As for `CCNC1(c2ccccc2)CCCCC1` [PCE, (1-Phenylcyclohexyl)ethylamine], the IC50 in series [4] (read-out: apparent IC50) came to 240 nM.

With `CC(C)NC1(c2cccc(N=C=S)c2)CCCCC1` [Isopropylphit], the IC50 in series [1] was 2700 nM.

As for `CCNC1(c2cccc(N=C=S)c2)CCCCC1` [Ethylphit], in [1], the IC50 came to 3840 nM.

With `NCCc1cc(O)c(O)cc1O` [6-OHDA], the “effect on PCP/PCMP-induced depressions of cerebellar Purkinje neurons” value in series [5] is “completely eliminates stereospecific Purkinje cell responses to PCMP”.

In the case of `CNC1(c2ccccc2Cl)CCCCC1=O` (stereo not drawn) [Ketamine], the “psychotomimetic effects relative to PCP” value in series [6] (in vivo) is listed as “psychotomimetic effects that do not occur as frequently as with PCP”.

As for `S=C=Nc1csc(C2(N3CCCCC3)CCCCC2)c1` [Thiophit], in [1], the “affinity for the PCP receptor relative to other ligands” value was “much higher affinity for the PCP receptors; also recorded: considerably higher affinity for the PCP receptor than either of the other two affinity ligands”, the “potency relative to metaphit” value is on record as “three times as potent as metaphit” and the 50% inhibitory concentration (IC50) was 900 nM. Moreover, in [2] (10 μM affinity ligand), the “Bmax ([3H]-TCP) in treated tissue” value came to 700 fmol/mg protein and the “reduction in Bmax” value is recorded as roughly 30%. Besides, the equilibrium dissociation constant (Kd) in series [2] (10 μM affinity ligand, value is for [3H]-TCP (1.0 to 150 nM), read-out: Kd ([3H]-TCP) in treated tissue) came to 27 nM.

For the molecule `S=C=Nc1cccc(C2(N3CCCCC3)CCCCC2)c1` [Metaphit, 1-[1-(3-isothiocyanatophenyl)cyclohexyl]piperidine], in series [7], the “Maximum % Alkylation by 10 uM Metaphit” value came out at 0% and the “irreversible loss of QNB binding” value is “without a significant loss of QNB binding”. For the same molecule, the “Maximum % Alkylation by 10 uM Metaphit” value in [8] was determined as 0%.

With `c1csc(C2(N3CCCCC3)CCCCC2)c1` [TCP], in [4], the “potency relative to PCI” value is on record as “twice as potent as PCI”. In series [1], the “affinity for the PCP receptor relative to PCP” value is listed as “considerably higher affinity for the PCP receptor than PCP” and the IC50 is 20 nM. The washout from homogenate result in series [9] is on record as “completely washed out of the homogenate”.

Regarding lithium, the “effect on PCP/PCMP-induced depressions of cerebellar Purkinje neurons” value in series [5] is “strongly antagonized PCP-induced depressions”.

In the case of `c1ccc(C2(N3CCCCC3)CCCCC2)cc1` [PCP, 1-(1-phenylcyclohexyl)piperidine], the 50% inhibitory concentration (IC50) in series [4] (read-out: IC50) is 75 nM and 70 nM; in series [4] (read-out: apparent IC50), 150 nM; in series [7], 25000 nM; in [8] it was greater than 200000 nM; in [1] it was 70 nM; in series [10], 13000 nM. The washout from homogenate result in series [9] (10 uM PCP alone) was “completely washed out of the homogenate”. Moreover, the “duration of psychological side effects” value in [6] (use as anesthetic) was “more than 12 hours”.

Turning to `c1ccc(C2(N3CCCCC3)CCCCC2)cc1` [[3H]-PCP], in [11], the dissociation constant Kd is 237 ± 8 nM. In [4] ([3H]-PCP), the “Non-specific binding of radioligand” value was 30 % of the total binding.

With `CC(C)NC1(c2ccccc2)CCCCC1` [PCI], the concentration for half-maximal inhibition (IC50) in series [4] (read-out: apparent IC50) amounted to 50 nM.
